Test results taken from patent publication US20240156764A1, “INHIBITION OF URACIL DNA GLYCOSYLASE IN THE OPEN CONFORMATION” (CASE WESTERN RESERVE UNIVERSITY, priority 2022, published 2024).

Key:
human UDG [1] = molecular target: T1, human UDG (Homo sapiens, UniProt P13051); assay: UDG protein thermal shift with Sypro orange dye; format: binding; details: 100 μM ATA
Description: The data for thermophoresis was recorded at 20° C. using the blue LED at 20% and IR-Laser at 40%. The isotherm derived from the raw data and fitted according to the law of mass action. […] Then 2 μL of 10× Sypro dye and 2 μL of ddH20 (Applied biosystems cat #4461141) were added. Monitoring of fluorescence took place for 2 hr (Bioraid CFX96, Hex filter, 25-97° C., 1.6° C./2 min). Negative (−) derivative RFU raw data and plots from the machine were obtained and analyzed. […] Melting temperature (Tm) value was taken directly from the midpoint on the −dRFU/dt vs. temperature graph. Each point on the graph represents an average of three data sets. Y error bars represent the standard deviation.
FIGS. 10(A-D) illustrate UDG thermal shift. A: Uracil DNA hairpin stabilizes UDG protein. […] Melting temperature (Tm) values were taken directly from lowest peak point on the negative dRFU/dt over temperature plots. B: (with uracil DNA): Parallel set of wells on the same plate included uracil-DNA harpin (final […]). Each plate was incubated 60 min at room temperature before the monitoring of fluorescence took place about 2 hr (Biorad CFX96, Hex filter, 25° C.-97C, 1.6° C./2 min). […] Each plate was incubated 60 min at room temperature before the monitoring of fluorescence took place about 2 hr (Biorad CFX96, Hex filter, 25° C.-97° C., increment of 1.6° C./2 min). […]
Target sequence in this assay (P13051 94-313 limits assumed): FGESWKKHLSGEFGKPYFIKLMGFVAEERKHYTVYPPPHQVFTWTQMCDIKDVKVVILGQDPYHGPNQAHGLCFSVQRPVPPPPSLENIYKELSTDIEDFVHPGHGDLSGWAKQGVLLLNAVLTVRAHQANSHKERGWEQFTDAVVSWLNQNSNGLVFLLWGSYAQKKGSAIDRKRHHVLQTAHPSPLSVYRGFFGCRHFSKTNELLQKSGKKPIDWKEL

[2] = test system: A:8oxoG (MPG, MUTYH) repair in MCF-7 cells; assay: Host-cell reactivation assay, A:8oxoG reporter, MCF-7; format: cell-based, human; details: ATA 2.5 μM
human UDG [3] = molecular target: T1, human UDG; assay: High-throughput screening assay: UDG-mediated unquenching of fluorescent uracil DNA hairpin; format: biochemical; design: 6xHis; purchased XTAL Biostructures; host or cells: Sf9 insect cells; details: purified human UDG, initial value, read-out: IC50 for the purified human UDG (un-quenching of fluorescence from the DNA hairpin)
Description: FIGS. 1(A-D) illustrate high-Throughput Small-Molecule Screening for UDG Inhibitors. A: 60 min reaction time-course experiment was performed to measure human UDG enzymatic activity in the presence of 10 nM UDG (red line) or absence of UDG (black line) uracil DNA hairpin (25 nM) only control. Each data point is the average of 12 reaction replicates from a 384-well plate. Error bars represent the standard deviation from the mean. B: Two independent screens using a plate of 320 compounds were plotted on the same graph with the trend line showing a positive correlation between the two runs with an R2 value of 0.711 using y=mx+b. […] Normalized percent activity of UDG-mediated unquenching of fluorescence DNA hairpin is shown. […] Control condition denotes RFU-UDG AVG (DNA alone no protein); the average relative fluorescence unit (RFU) value was computed using a set of 32 replicate wells per screening plate. […]
The collection of biologically active molecules was compiled from the LOPAC library (Sigma Aldrich) and Bioactive Compound Library (Selleck Chemicals). […] After 40 min of incubation at room temperature (˜23° C.), fluorescence measurements were done using an Enspire plate reader (Perkin Elmer) at an excitation wavelength of 485 nm and emission wavelength of 520 nm. Compound performance from per plate was calculated and normalized accounting for background fluorescence by the following equation: […]
Target sequence in this assay (P13051 1-304 isoform P13051-2): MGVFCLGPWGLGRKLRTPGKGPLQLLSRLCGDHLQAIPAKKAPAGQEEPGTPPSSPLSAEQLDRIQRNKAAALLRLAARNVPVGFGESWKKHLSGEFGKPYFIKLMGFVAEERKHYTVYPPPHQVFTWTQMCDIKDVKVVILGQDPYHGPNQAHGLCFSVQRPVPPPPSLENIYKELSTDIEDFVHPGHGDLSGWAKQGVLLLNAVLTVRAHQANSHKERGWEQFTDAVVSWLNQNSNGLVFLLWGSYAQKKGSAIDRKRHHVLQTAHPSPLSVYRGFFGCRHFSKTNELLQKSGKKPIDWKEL

Compound: O=C(O)C1=CC(=C(c2ccc(O)c(C(=O)O)c2)c2ccc(O)c(C(=O)O)c2)C=CC1=O [ATA, aurintricarboxylic acid]
- average maximum Tm change for UDG (human UDG [1]; absence of uracil containing DNA): ~3.0 °C
- change of Tm of UDG protein (human UDG [1]; with 1.0 mM uracil DNA hairpin): did not further change the Tm
- inhibition of repair of A:8oxoG basepair [2]: not inhibiting
- IC50 (human UDG [3]): 0.04 µM
